Laboratory results as given in ChEMBL document CHEMBL1138365, “Application of 3D-QSAR for identification of descriptors defining bioactivity of antimicrobial peptides” (2007).
Values after ≈ are worked out from the molar mass of the structure shown. Starred links: 1 amine or outer side, 2 acyl side, 3 side chain; linkers in the order of their positions; H or OH if unused. Non-standard residues stand in square brackets, D forms with d. Residues, ends and D or L forms follow the SMILES beside them. ξ: configuration not given here. *: point of attachment. Pro(3ξ,4ξ-(CH2)4) = O=C(O)[C@H]1NCC2CCCCC21; Oic = O=C(O)[C@@H]1C[C@@H]2CCCC[C@@H]2N1; Ethylenediamine = C(CN[*:2])N[*:1]; Tic = O=C(O)[C@@H]1Cc2ccccc2CN1; NH(CH2)3NH2 = NCCCN*

Key:
Staphylococcus aureus = test: Antibacterial activity against Staphylococcus aureus; format: functional
[1] = tested on: Mycolicibacterium fortuitum; test: Antibacterial activity against Mycobacterium ranae; format: functional

SMILES | MIC (Staphylococcus aureus) | MIC [1]
CC(C)C[C@@H](NC(=O)CNC(=O)[C@H](CCCCN)NC(=O)CN)C(=O)N1Cc2ccccc2C[C@H]1C(=O)N1CC2CCCCC2[C@H]1C(=O)NCC(=O)N[C@@H](CCCNC(=N)N)C(=O)N1Cc2ccccc2C[C@H]1C(=O)N1CC2CCCCC2[C@H]1C(=O)NCC(=O)N[C@@H](Cc1ccccc1)C(=O)N1Cc2ccccc2C[C@H]1C(=O)N1CC2CCCCC2[C@H]1C(=O)NCC(=O)N[C@@H](CCCNC(=N)N)C(=O)N1Cc2ccccc2C[C@H]1C(=O)N1CC2CCCCC2[C@H]1C(=O)NCC(=O)N[C@@H](Cc1ccccc1)C(=O)N1Cc2ccccc2C[C@H]1C(=O)N1CC2CCCCC2[C@H]1C(=O)NCC(=O)N[C@@H](CCCNC(=N)N)C(=O)N1Cc2ccccc2C[C@H]1C(=O)N1CC2CCCCC2[C@H]1C(=O)NCC(=O)N[C@@H](CCCCN)C(=O)N[C@@H](CCCNC(=N)N)C(N)=O (some centres undefined) | 10 µM (≈ 36.2 µg/mL) | 
CC(C)C[C@H](NC(=O)CNC(=O)[C@@H]1C2CCCCC2CN1C(=O)[C@@H]1Cc2ccccc2CN1C(=O)[C@H](CC(C)C)NC(=O)CNC(=O)[C@@H]1C2CCCCC2CN1C(=O)[C@@H]1Cc2ccccc2CN1C(=O)[C@H](CCCCN)NC(=O)CNC(=O)[C@@H]1C2CCCCC2CN1C(=O)[C@@H]1Cc2ccccc2CN1C(=O)[C@H](CC(C)C)NC(=O)CNC(=O)[C@@H]1C2CCCCC2CN1C(=O)[C@@H]1Cc2ccccc2CN1C(=O)[C@H](CCCCN)NC(=O)CNC(=O)[C@@H]1C2CCCCC2CN1C(=O)[C@@H]1Cc2ccccc2CN1C(=O)[C@H](CC(C)C)NC(=O)CNC(=O)[C@@H]1C2CCCCC2CN1C(=O)[C@@H]1Cc2ccccc2CN1C(=O)[C@@H](CC(C)C)NC(=O)CNC(=O)[C@H](CCCCN)NC(=O)CN)C(=O)N[C@@H](CCCNC(=N)N)C(N)=O (some centres undefined) | 100 µM (≈ 344 µg/mL) | 
CC(C)C[C@H](NC(=O)CNC(=O)[C@@H]1C2CCCCC2CN1C(=O)[C@@H]1Cc2ccccc2CN1C(=O)[C@H](CCCCN)NC(=O)CNC(=O)[C@@H]1C2CCCCC2CN1C(=O)[C@@H]1Cc2ccccc2CN1C(=O)[C@H](CC(C)C)NC(=O)CNC(=O)[C@@H]1C2CCCCC2CN1C(=O)[C@@H]1Cc2ccccc2CN1C(=O)[C@H](CCCCN)NC(=O)CNC(=O)[C@@H]1C2CCCCC2CN1C(=O)[C@@H]1Cc2ccccc2CN1C(=O)[C@@H](CC(C)C)NC(=O)CNC(=O)[C@H](CCCCN)NC(=O)CN)C(=O)N1Cc2ccccc2C[C@H]1C(=O)N1CC2CCCCC2[C@H]1C(=O)NCC(=O)N[C@@H](CCCCN)C(=O)N1Cc2ccccc2C[C@H]1C(=O)N1CC2CCCCC2[C@H]1C(=O)NCC(=O)N[C@@H](CCCCN)C(=O)N[C@@H](CCCNC(=N)N)C(N)=O (some centres undefined) | 10 µM (≈ 34.7 µg/mL) | 
CC(C)C[C@H](NC(=O)CNC(=O)[C@H](CCCCN)NC(=O)CN)C(=O)N1Cc2ccccc2C[C@H]1C(=O)N1CC2CCCCC2[C@H]1C(=O)N[C@H](Cc1ccccc1)C(=O)N[C@H](CCCCN)C(=O)N1Cc2ccccc2C[C@@H]1C(=O)N1CC2CCCCC2[C@H]1C(=O)N[C@H](CCCCN)C(=O)N[C@H](Cc1ccccc1)C(=O)N1Cc2ccccc2C[C@H]1C(=O)N1CC2CCCCC2[C@@H]1C(=O)N[C@H](Cc1ccccc1)C(=O)N[C@H](CCCCN)C(=O)N1Cc2ccccc2C[C@@H]1C(=O)N1CC2CCCCC2[C@H]1C(=O)N[C@@H](CCCCN)C(=O)N[C@@H](Cc1ccccc1)C(=O)N1Cc2ccccc2C[C@@H]1C(=O)N1CC2CCCCC2[C@H]1C(=O)N[C@H](Cc1ccccc1)C(=O)N[C@H](CCCCN)C(=O)N1Cc2ccccc2C[C@@H]1C(=O)N1CC2CCCCC2[C@@H]1C(=O)N[C@H](Cc1ccccc1)C(=O)N[C@@H](CCCCN)C(=O)N[C@@H](CCCNC(=N)N)C(N)=O (some centres undefined) | 30 µM (≈ 121 µg/mL) | 
CC(=O)N[C@@H](Cc1ccccc1)C(=O)N1Cc2ccccc2C[C@H]1C(=O)N1CC2CCCCC2[C@H]1C(=O)N[C@@H](CCCCN)C(=O)N1Cc2ccccc2C[C@H]1C(=O)N1CC2CCCCC2[C@H]1C(=O)N[C@@H](Cc1ccccc1)C(=O)N1Cc2ccccc2C[C@H]1C(=O)N1CC2CCCCC2[C@H]1C(=O)N[C@@H](CCCCN)C(=O)N1Cc2ccccc2C[C@H]1C(=O)N[C@@H](CCCCN)C(=O)N[C@@H](CCCCN)C(=O)N[C@@H](CCCCN)C(=O)N[C@@H](CCCCN)C(N)=O (some centres undefined) (Ac-F[Tic][Pro(3ξ,4ξ-(CH2)4)]K[Tic][Pro(3ξ,4ξ-(CH2)4)]F[Tic][Pro(3ξ,4ξ-(CH2)4)]K[Tic]KKKK-NH2) | 3 µM (≈ 6.64 µg/mL) | 30 µM (≈ 66.4 µg/mL)
CC(=O)N[C@@H](Cc1ccccc1)C(=O)N1Cc2ccccc2C[C@H]1C(=O)N1CC2CCCCC2[C@H]1C(=O)N[C@@H](CCCCN)C(=O)N1Cc2ccccc2C[C@H]1C(=O)N1CC2CCCCC2[C@H]1C(=O)N[C@@H](Cc1ccccc1)C(=O)N1Cc2ccccc2C[C@H]1C(=O)N1CC2CCCCC2[C@H]1C(=O)N[C@@H](CCCCN)C(=O)N1Cc2ccccc2C[C@H]1C(=O)N[C@@H](CCCCN)C(=O)N[C@@H](CCCCN)C(=O)N[C@@H](CCCCN)C(=O)N[C@@H](CCCCN)C(=O)N[C@@H](CCCCN)C(=O)N[C@@H](CCCCN)C(N)=O (some centres undefined) (Ac-F[Tic][Pro(3ξ,4ξ-(CH2)4)]K[Tic][Pro(3ξ,4ξ-(CH2)4)]F[Tic][Pro(3ξ,4ξ-(CH2)4)]K[Tic]KKKKKK-NH2) | 3 µM (≈ 7.41 µg/mL) | 3 µM (≈ 7.41 µg/mL)
CC(=O)NCC(=O)N[C@@H](Cc1ccccc1)C(=O)NCC(=O)N1CC2CCCCC2[C@H]1C(=O)NCC(=O)N[C@@H](CCCCN)C(=O)NCC(=O)N1CC2CCCCC2[C@H]1C(=O)NCC(=O)N[C@@H](Cc1ccccc1)C(=O)NCC(=O)N1CC2CCCCC2[C@H]1C(=O)NCC(=O)N[C@@H](CCCCN)C(=O)NCC(=O)N[C@@H](CCCCN)C(=O)N[C@@H](CCCCN)C(=O)N[C@@H](CCCCN)C(=O)N[C@@H](CCCCN)C(N)=O (some centres undefined) (Ac-GFG[Pro(3ξ,4ξ-(CH2)4)]GKG[Pro(3ξ,4ξ-(CH2)4)]GFG[Pro(3ξ,4ξ-(CH2)4)]GKGKKKK-NH2) |  | 100 µM (≈ 203 µg/mL)
CC(=O)NCC(=O)N[C@@H](Cc1ccccc1)C(=O)N1CC2CCCCC2[C@H]1C(=O)NCC(=O)N[C@@H](CCCCN)C(=O)N1CC2CCCCC2[C@H]1C(=O)NCC(=O)N[C@@H](Cc1ccccc1)C(=O)N1CC2CCCCC2[C@H]1C(=O)NCC(=O)N[C@@H](CCCCN)C(=O)N[C@@H](CCCCN)C(=O)N[C@@H](CCCCN)C(=O)N[C@@H](CCCCN)C(=O)N[C@@H](CCCCN)C(N)=O (some centres undefined) (Ac-GF[Pro(3ξ,4ξ-(CH2)4)]GK[Pro(3ξ,4ξ-(CH2)4)]GF[Pro(3ξ,4ξ-(CH2)4)]GKKKKK-NH2) |  | 100 µM (≈ 180 µg/mL)
CC(=O)NCC(=O)N[C@@H](Cc1ccccc1)C(=O)N1Cc2ccccc2C[C@H]1C(=O)NCC(=O)NCC(=O)N[C@@H](CCCCN)C(=O)N1Cc2ccccc2C[C@H]1C(=O)NCC(=O)NCC(=O)N[C@@H](Cc1ccccc1)C(=O)N1Cc2ccccc2C[C@H]1C(=O)NCC(=O)NCC(=O)N[C@@H](CCCCN)C(=O)N1Cc2ccccc2C[C@H]1C(=O)N[C@@H](CCCCN)C(=O)N[C@@H](CCCCN)C(=O)N[C@@H](CCCCN)C(=O)N[C@@H](CCCCN)C(N)=O (Ac-GF[Tic]GGK[Tic]GGF[Tic]GGK[Tic]KKKK-NH2) |  | 30 µM (≈ 64.8 µg/mL)
CC(=O)NCC(=O)N[C@@H](Cc1ccccc1)C(=O)N1Cc2ccccc2C[C@H]1C(=O)NCC(=O)N[C@@H](CCCCN)C(=O)N1Cc2ccccc2C[C@H]1C(=O)NCC(=O)N[C@@H](Cc1ccccc1)C(=O)N1Cc2ccccc2C[C@H]1C(=O)NCC(=O)N[C@@H](CCCCN)C(=O)N1Cc2ccccc2C[C@H]1C(=O)N[C@@H](CCCCN)C(=O)N[C@@H](CCCCN)C(=O)N[C@@H](CCCCN)C(=O)N[C@@H](CCCCN)C(N)=O (Ac-GF[Tic]GK[Tic]GF[Tic]GK[Tic]KKKK-NH2) |  | 30 µM (≈ 59.6 µg/mL)
CC(=O)NCC(=O)N[C@@H](Cc1ccccc1)C(=O)N1Cc2ccccc2C[C@H]1C(=O)N1[C@H](C(=O)NCC(=O)N[C@@H](CCCCN)C(=O)N2Cc3ccccc3C[C@H]2C(=O)N2[C@H](C(=O)NCC(=O)N[C@@H](Cc3ccccc3)C(=O)N3Cc4ccccc4C[C@H]3C(=O)N3[C@H](C(=O)NCC(=O)N[C@@H](CCCCN)C(=O)N4Cc5ccccc5C[C@H]4C(=O)N[C@@H](CCCCN)C(=O)N[C@@H](CCCCN)C(=O)N[C@@H](CCCCN)C(=O)N[C@@H](CCCCN)C(=O)NCCN)C[C@@H]4CCCC[C@@H]43)C[C@@H]3CCCC[C@@H]32)C[C@@H]2CCCC[C@@H]21 (Ac-GF[Tic][Oic]GK[Tic][Oic]GF[Tic][Oic]GK[Tic]KKKK-Ethylenediamine) | 3 µM (≈ 7.45 µg/mL) | 10 µM (≈ 24.8 µg/mL)
CC(=O)NCC(=O)N[C@@H](Cc1ccccc1)C(=O)N1Cc2ccccc2C[C@H]1C(=O)N1[C@H](C(=O)NCC(=O)N[C@@H](CCCCN)C(=O)N2Cc3ccccc3C[C@H]2C(=O)N2[C@H](C(=O)NCC(=O)N[C@@H](Cc3ccccc3)C(=O)N3Cc4ccccc4C[C@H]3C(=O)N3[C@H](C(=O)NCC(=O)N[C@@H](CCCCN)C(=O)N4Cc5ccccc5C[C@H]4C(=O)N[C@@H](CCCCN)C(=O)N[C@@H](CCCCN)C(=O)N[C@@H](CCCCN)C(=O)N[C@@H](CCCCN)C(=O)NCCCN)C[C@@H]4CCCC[C@@H]43)C[C@@H]3CCCC[C@@H]32)C[C@@H]2CCCC[C@@H]21 (Ac-GF[Tic][Oic]GK[Tic][Oic]GF[Tic][Oic]GK[Tic]KKKK-{NH(CH2)3NH2}) | 10 µM (≈ 25 µg/mL) | 10 µM (≈ 25 µg/mL)
CC(=O)NCC(=O)N[C@@H](Cc1ccccc1)C(=O)N1Cc2ccccc2C[C@H]1C(=O)N1CC2CCCCC2[C@H]1C(=O)NCC(=O)N[C@@H](CCCCN)C(=O)N1Cc2ccccc2C[C@H]1C(=O)N1CC2CCCCC2[C@H]1C(=O)NCC(=O)N[C@@H](Cc1ccccc1)C(=O)N1Cc2ccccc2C[C@H]1C(=O)N1CC2CCCCC2[C@H]1C(=O)NCC(=O)N[C@@H](CCCCN)C(=O)N1Cc2ccccc2C[C@H]1C(=O)N[C@@H](CCCCN)C(=O)N[C@@H](CCCCN)C(=O)N[C@@H](CCCCN)C(=O)N[C@@H](CCCCN)C(N)=O (some centres undefined) (Ac-GF[Tic][Pro(3ξ,4ξ-(CH2)4)]GK[Tic][Pro(3ξ,4ξ-(CH2)4)]GF[Tic][Pro(3ξ,4ξ-(CH2)4)]GK[Tic]KKKK-NH2) | 3 µM (≈ 7.32 µg/mL) | 10 µM (≈ 24.4 µg/mL)
CC(C)C[C@H](NC(=O)CNC(=O)[C@H](CCCCN)NC(=O)CN)C(=O)N1Cc2ccccc2C[C@H]1C(=O)N1CC2CCCCC2[C@H]1C(=O)NCC(=O)N[C@@H](CCCCN)C(=O)N1Cc2ccccc2C[C@H]1C(=O)N1CC2CCCCC2[C@H]1C(=O)NCC(=O)N[C@@H](Cc1ccccc1)C(=O)N1Cc2ccccc2C[C@H]1C(=O)N1CC2CCCCC2[C@H]1C(=O)NCC(=O)N[C@@H](CCCCN)C(=O)N1Cc2ccccc2C[C@H]1C(=O)N1CC2CCCCC2[C@H]1C(=O)NCC(=O)N[C@@H](Cc1ccccc1)C(=O)N1Cc2ccccc2C[C@H]1C(=O)N1CC2CCCCC2[C@H]1C(=O)NCC(=O)N[C@@H](CCCCN)C(=O)N1Cc2ccccc2C[C@H]1C(=O)N1CC2CCCCC2[C@H]1C(=O)NCC(=O)N[C@@H](CCCCN)C(=O)N[C@@H](CCCNC(=N)N)C(N)=O (some centres undefined) (H-GKGL[Tic][Pro(3ξ,4ξ-(CH2)4)]GK[Tic][Pro(3ξ,4ξ-(CH2)4)]GF[Tic][Pro(3ξ,4ξ-(CH2)4)]GK[Tic][Pro(3ξ,4ξ-(CH2)4)]GF[Tic][Pro(3ξ,4ξ-(CH2)4)]GK[Tic][Pro(3ξ,4ξ-(CH2)4)]GKR-NH2) | 10 µM (≈ 35.4 µg/mL) | 
